Laboratory results from US20050089524A1, “Compositions and compounds for use as molecular adjuvant for a nicotine vaccine” (priority 2002, published 2005).
Square brackets hold non-standard residues; d marks the D form. Peptide text beside a SMILES is read from it.

Columns and labels:
[1] = test system: immunizing peptide and free peptides; experiment: ELISA of sera from mice immunized with HBsAg CTL epitope-C5a agonist constructs; type: in vivo; conditions: 1:50 dilution of the serum
Procedure: Immunization protocols. Groups of six to eight BALB/c mice were given bilateral s.c. injections in the inguinal area with (100 μl each side) of a PBS solution containing 50-100 μg of the peptides. Booster injections were given s.c. in the inguinal region at 21-day intervals. Sera for Ab analysis were obtained by retro-orbital bleeds of mice under CO2 narcosis.
Antibodies to the HBsAg CTL epitope or the C5a agonist are not produced by immunization with the HBsAg CTL epitope-C5a agonist constructs. […] Thus, it was of interest to determine whether sera from mice immunized with the control peptides and epitope-C5a agonist constructs contained antibody directed against any of the peptides. […] (SEQ ID NO: 12), […]

human umbilical artery = experiment: Smooth muscle contraction of human umbilical artery; type: cell-based
Procedure: (§1) Pharmacologic assays. […] Statistical analysis of the values obtained from pharmacologic assays was performed using one-way analysis of variance (ANOVA).

human PMNs = experiment: MPO release from human PMNs; type: cell-based
Procedure: as §1

[2] = test system: 51Cr-labeled P815S (HBsAg transfectant) target cells; experiment: HBsAg-specific CTL response of immunized mice (51Cr-release assay); type: in vivo, BALB/c mice; conditions: for % Specific Lysis: s.c. in PBS, boost day 21, spleen cells day 42
C5aR = biological target: T1, C5aR (Homo sapiens, UniProt P21730); experiment: Binding affinity for C5aRs on human PMNs (125I-C5a competition)
T1 construct: endogenous in cells; host or cells: intact human PMNs (polymorphonuclear leukocytes)
T1 sequence (P21730 1-350): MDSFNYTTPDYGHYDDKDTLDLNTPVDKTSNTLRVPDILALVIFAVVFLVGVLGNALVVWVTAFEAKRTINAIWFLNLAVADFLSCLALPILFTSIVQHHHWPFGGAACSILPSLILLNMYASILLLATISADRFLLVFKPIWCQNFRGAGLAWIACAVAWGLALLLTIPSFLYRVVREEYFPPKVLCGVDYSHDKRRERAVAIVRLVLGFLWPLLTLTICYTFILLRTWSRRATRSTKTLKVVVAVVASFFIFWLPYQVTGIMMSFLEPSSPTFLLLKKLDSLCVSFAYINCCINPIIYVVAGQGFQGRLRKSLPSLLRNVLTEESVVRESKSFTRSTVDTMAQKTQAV
Procedure: Pharmacologic assays. C5a-like agonistic activity was assessed by the ability of the peptides to induce smooth muscle contraction of human umbilical artery and […] from human PMNs according to previously published methods (Sanderson et al., 1994, supra; Sanderson et al., J. Med. Chem. 38, 3669, 1995; Finch et al., J. Med. Chem. 40, 877, 1997). Full concentration-response curves were generated for individual peptides and natural C5a in each assay and the EC50 values (the concentration of peptide producing 50% of the maximal response to each peptide) were calculated. pD2 transforms [−log EC50 (M)] were calculated for each concentration-response curve and reported as the mean±SE. Peptide binding affinity to the C5aR was evaluated on intact human PMNs by a competition assay using ^125I-C5a according to previously described methods (Sanderson et al., 1995, supra; Finch et al., 1997, supra). Statistical analysis of the values obtained from pharmacologic assays was performed using one-way analysis of variance (ANOVA).

[3] = biological target: C5a receptor (C5aR) expressed on the surface of human PMNs (human) (UniProt P21730); experiment: competition with 125I-C5a on intact human PMNs
[4] = biological target: C5a receptor (C5aR) expressed on the surface of human PMNs (human) (UniProt P21730); experiment: cell-based or functional assay
[5] = biological target: C5a receptor (C5aR) expressed on the surface of human PMNs (human) (UniProt P21730); experiment: competition with 125I-C5a on intact human PMNs; concentration giving 50% inhibition of 125I-C5a binding
[6] = Anti-nicotine antibodies in immune serum of rats (ELISA); type: in vivo, Wistar rats
Procedure: ii. Animal Models. Five groups of male Wistar rats (ca 275 g) were immunized every other week with: 1) PBS 2) Nic-[…]aR (Nic-SEQ ID NO:1), 3) Nic-[…]aR (Nic-SEQ ID NO:1) in Freund's adjuvant, 4) Nic-[…]aR (Nic-SEQ ID NO:2), and 5) Nic-[…]aR (Nic-SEQ ID NO:2) in Freund's adjuvant. Primary immunizations were accomplished by subcutaneous (s.c.) and intrapertioneal (i.p.) injection of 100 μg of the peptides as indicated above in the presence or absences of complete Freund's adjuvant. Boosting was performed in identical fashion at two-week internals with 100 μg of the peptides in the presence of absence of Freund's adjuvant. Sera were obtained by retro-orbital sinus puncture one week after the third injection.

[7] = biological target: T2, C5a receptor (C5aR) expressed on the surface of human PMNs (human, UniProt P21730 1-350); experiment: cell-based or functional assay
T2 sequence (looked up): T1 sequence (P21730 1-350)

[8] = biological target: T2, C5a receptor (C5aR) expressed on the …; experiment: cell-based or functional assay; remark: listed apart in the source
[9] = biological target: T2, C5a receptor (C5aR) expressed on the …; experiment: competition with 125I-C5a on intact human PMNs
Source text: Pharmacologic activities.

[10] = biological target: T2, C5a receptor (C5aR) expressed on the …; experiment: competition with 125I-C5a on intact human PMNs; concentration giving 50% inhibition of 125I-C5a binding
[11] = 100 μg s.c. and i.p., sera one week after the third injection

Q: For `CC[C@H](C)[C@H](N)C(=O)N1CCC[C@H]1C(=O)N[C@@H](CCC(N)=O)C(=O)N[C@@H](CO)C(=O)N[C@@H](CC(C)C)C(=O)N[C@@H](CC(=O)O)C(=O)N[C@@H](CO)C(=O)N[C@@H](Cc1c[nH]c2ccccc12)C(=O)N[C@@H](Cc1c[nH]c2ccccc12)C(=O)N[C@H](C(=O)N[C@@H](CO)C(=O)N[C@@H](CC(C)C)C(=O)N[C@@H](CCCNC(=N)N)C(=O)N[C@@H](CCCNC(=N)N)C(=O)N[C@@H](Cc1ccc(O)cc1)C(=O)N[C@@H](CO)C(=O)N[C@@H](Cc1ccccc1)C(=O)N[C@@H](CCCCN)C(=O)N1CCC[C@H]1C(=O)N[C@@H](CCSC)C(=O)N1CCC[C@H]1C(=O)N[C@@H](CC(C)C)C(=O)N[C@H](C)C(=O)N[C@@H](CCCNC(=N)N)C(=O)O)[C@@H](C)O` (H-IPQSLDSWWTSLRRYSFKPMPL[dA]R-OH; N-terminus assumed), which “serum binding to the free C5a agonist and CTL epitope peptides (ELISA)” value [1] is on record?
A: The value was “did not bind the free peptides”.

Q: What about the EC50 (human umbilical artery; concentration resulting in 50% maximum contraction) of the same molecule?
A: Its EC50 is 161 nM.

Q: What about the “pD2 ± SE” value (human umbilical artery; −log EC50 (M), mean ± SE, n 3) of the same molecule?
A: Its value is 6.79 ± 0.31.

Q: And the EC50 (human PMNs; concentration resulting in 50% maximum release of myeloperoxidase)?
A: Its EC50 is 540 nM.

Q: And the “pD2 ± SE” value (human PMNs; −log EC50 (M), mean ± SE, n 3)?
A: Its value is 6.27 ± 0.29.

Q: What about the “% Specific Lysis” value ([2]; Effector:Target Ratio 6.25:1) of the same molecule?
A: The value was 9%.

Q: And the “% Specific Lysis” value ([2]; Effector:Target Ratio 12.5:1)?
A: The value was 14%.

Q: What about the “% Specific Lysis” value ([2]; Effector:Target Ratio 25:1) of the same molecule?
A: The value was 23%.

Q: And the “% Specific Lysis” value ([2]; Effector:Target Ratio 50:1)?
A: Its value is 32%.

Q: What about the “antigen-specific CTL response” value ([2]; three s.c. injections of 50 μg at 21 day intervals, no added adjuvant) of the same molecule?
A: Its value is “generated an antigen-specific CTL response”.

Q: And the EC50 (C5aR)?
A: Its EC50 is 416 nM.

Q: And the IC50 (C5aR)?
A: The IC50 was 417 nM.

Q: For “C5a C-terminal decapeptide agonist analog YSFKPMPLaR”, which pD2 (-log EC50 (M)) [3] is on record?
A: The pD2 (-log EC50 (M)) was 5.63.

Q: And the smooth muscle contraction of human umbilical artery, EC50 [4]?
A: The smooth muscle contraction of human umbilical artery, EC50 was 10 nM.

Q: What about the smooth muscle contraction of human umbilical artery, pD2 (-log EC50 (M)) [4] of the same molecule?
A: Its smooth muscle contraction of human umbilical artery, pD2 (-log EC50 (M)) is 6.99.

Q: What about the EC50 [5] of the same molecule?
A: The EC50 was 2340 nM.

Q: With “Nic-YKQGGFLGLYSFKPMPLaR [B-cell-C5a-Nic]” as the molecule, how does the “dipper entries on nicotine sessions, first cycle” value (male Sprague-Dawley rats; 1000 mg (500 mg s.c. and 500 mg i.p.) in saline, boosted weekly for 2 weeks, nicotine 0.4 mg/kg s.c.) read?
A: The value was “significantly less dipper entries than non-vaccinated rats on nicotine Sessions 2 and 3”.

Q: What about the “index of learning-elevation score for the first light” value (male Sprague-Dawley rats; first cycle) of the same molecule?
A: Its value is “does not differ between vaccinated and non-vaccinated rats”.

Q: What about the “dipper entries on saline sessions” value (male Sprague-Dawley rats; nicotine not present) of the same molecule?
A: Its value is “does not differentially affect behavior in this preparation when nicotine is not present”.

Q: And the “Modified Minus Unmodified, BSA” value [6, 11]?
A: The value was 0 ng/mL.

Q: And the “Modified Minus Unmodified, BSA-Nic” value [6, 11]?
A: Its value is 33,943 ng/ml.

Q: What about the “Raw Data, plate coated with BSA” value [6, 11] of the same molecule?
A: Its value is 1,298 ng/ml.

Q: What about the “Raw Data, plate coated with BSA-Nic” value [6, 11] of the same molecule?
A: Its value is 35,241 ng/ml.

Q: What about the “antibody reactivity on other nicotine-modified peptides” value ([6]; in the presence of Freund's adjuvant, FIG. 7) of the same molecule?
A: Its value is 172,647 ng/ml.

B1: natural C5a (ligand, UniProt P01031 678-751, looked up)
chain: TLQKKIEEIAAKYKHSVVKKCCYDGACVNNDETCEQRAARISLGPRCIKAFTECCVVASQLRANISHKDMQLGR
Q: Which “MPO release from human PMNs, EC50” value [7] does the source give for B1 here?
A: Its value is 3 nM.

Q: And the “MPO release from human PMNs, pD2 (-log EC50 (M))” value [7]?
A: Its value is 8.5.

Q: And the “smooth muscle contraction of human umbilical artery, EC50” value [8]?
A: Its value is 2 nM.

Q: What about the “smooth muscle contraction of human umbilical artery, pD2 (-log EC50 (M))” value [8] of the same molecule?
A: Its value is 8.77.

Q: And the “pD2 (-log EC50 (M))” value [9]?
A: Its value is 9.43.

Q: What about the EC50 [10] of the same molecule?
A: Its EC50 is 0.4 nM.
